Reference: patent US5075287A, “Muramyl peptide derivatives and immunoregulating compositions containing them” (priority 1989, dated 1991)
Like-named read-outs stand apart in the source and are kept apart here.

Tests used:
[1] = tested on: hepatitis B virus surface antigen (HBs); assay: Hepatitis-vaccine enhancing activity (adjuvant activity): anti-HBs IgG in mouse serum by ELISA; assay type: in vivo, female CDF1 mice; conditions: Experiment 1, 5000-fold dilution
Method in brief: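 Female CDF1 mice (n=7) given 0.2 ml i.p. of compound in lipid microspheres (1 mg/ml) mixed 1:1 with HBs antigen (50 μg/ml), boosted identically at 3 weeks. Sera from weekly fundus bleeds before and after boost. Anti-HBs IgG measured by ELISA.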

[2] = tested on: influenza HA vaccine (B/Nagasaki/1/87 strain); assay type: in vivo, female CDF1 mice; conditions: Experiment 1, 5000-fold dilution
[3] = tested on: L-1210 mouse leukemia cells; assay: Activation of macrophages (growth inhibition of tumor cells by intraperitoneal macrophages of treated mice, MTT assay); assay type: cell-based; conditions: macrophages taken 3 days after i.p. 0.2 ml of 500 μg/ml, macrophage:L-1210 20:1, 72 hours
Method: A compound of the present invention was dissolved in lipidmicrosphere to obtain a solution in a concentration of 500μg/ml, and 0.2 ml of such solution was intraperitoneally administered to each mouse in one group consisting of seven female CDF1 mice. Intraperitoneal macrophages obtained three days after the administration and L-1210 mouse leukemia cells were mixed in the ratio of cell numbers of 20:1, respectively. Two hundred μl of the mixture was placed in each well of one sheet of 96 well microtiter plate. After 72 hours, the increase of the cell number in each well was determined by a MTT assay method. The ratio of the cell number for the mixture of the L-1210 cells and the macrophage relative to the cell number for the L-1210 cells only(growth inhibitory ratio) was determined, and the results are shown in Table 3.

[4] = 1 W after i.p. administration, compound in lipidmicrosphere + HBs
[5] = 4 W (after secondary stimulation at 3 weeks)
[6] = 5 W (after secondary stimulation at 3 weeks)
[7] = 1 W after i.p. administration, compound in lipidmicrosphere + HA vaccine

Structure (SMILES) | Anti-HBs IgG antibody level in serum (ELISA absorbance at 415 nm) [1, 4] [O.D 415 nm] | Anti-HBs IgG antibody level in serum (ELISA absorbance at 415 nm) ([1]; 2 W) [O.D 415 nm] | Anti-HBs IgG antibody level in serum (ELISA absorbance at 415 nm) ([1]; 3 W) [O.D 415 nm] | Anti-HBs IgG antibody level in serum (ELISA absorbance at 415 nm) [1, 5] [O.D 415 nm] | Anti-HBs IgG antibody level in serum (ELISA absorbance at 415 nm) [1, 6] [O.D 415 nm] | Anti HA serum antigen value (average value ± S.D.) [2, 7] [O.D 415 nm] | Anti HA serum antigen value (average value ± S.D.) ([2]; 2 W) [O.D 415 nm] | Anti HA serum antigen value (average value ± S.D.) ([2]; 3 W) [O.D 415 nm] | Anti HA serum antigen value (average value ± S.D.) [2, 5] [O.D 415 nm] | Anti HA serum antigen value (average value ± S.D.) [2, 6] [O.D 415 nm] | Growth inhibitory ratio of L-1210 mouse leukemia cells [3] [%]
CCCCCCCCCCCCCC(=O)O[C@H](CCCCCCCCCCC)CC(=O)O[C@H]1O[C@H](COC(=O)CCCCCCCCC)[C@@H](O)[C@H](O[C@H](C)C(=O)N[C@@H](C)C(=O)N[C@H](CCC(=O)OC)C(N)=O)[C@H]1NC(C)=O [Example 11, N-[2-0-{2-Acetamido-2,3-dideoxy-6-0-decanoyl-1-0((3R)-3-tetradecanoyloxytetradecanoyl)-α-D-glucopyranos-3-yl}-D-lactoyl]-L-alanyl-D-isoglutaminemethylester] | 0.010 ± 0.002 | 0.083 ± 0.002 | 0.124 ± 0.003 | 0.602 ± 0.009 | 0.716 ± 0.020 | 0 | 0.073 ± 0.000 | 0.160 ± 0.005 | 1.059 ± 0.016 | 1.050 ± 0.003 | 59.7
CCCCCCCCCCCCCC(=O)OC[C@H]1O[C@H](OC(=O)C[C@@H](CCCCCCCCCCC)OC(=O)CCCCCCCCCCCCC)[C@H](NC(C)=O)[C@@H](O[C@H](C)C(=O)N[C@@H](C)C(=O)N[C@H](CCC(=O)OC)C(N)=O)[C@@H]1O [Example 12, N-[2-0-{2-Acetamido-2,3-dideoxy-6-0-tetradecanoyl-1-0-((3R)-3-tetradecanoyloxytetradecanoyl)-α-D-glucopyranos-3yl}-D-lactoyl]-L-alanyl-D-isoglutamine methylester] | 0.007 ± 0.003 | 0.109 ± 0.002 | 0.111 ± 0.001 | 0.608 ± 0.021 | 0.695 ± 0.021 | 0 | 0.105 ± 0.004 | 0.176 ± 0.002 | 1.039 ± 0.015 | 1.050 ± 0.008 | 79.0
CCCCCCCCCCCCCCCCCC(=O)OC[C@H]1O[C@H](OC(=O)C[C@@H](CCCCCCCCCCC)OC(=O)CCCCCCCCCCCCC)[C@H](NC(C)=O)[C@@H](O[C@H](C)C(=O)N[C@@H](C)C(=O)N[C@H](CCC(=O)OC)C(N)=O)[C@@H]1O [Example 13, N-[2-0-{2-Acetamido-2,3-dideoxy-6-0-octadecanoyl-1-0-((3R)-3-tetradecanoyloxytetradecanoyl)-α-D-glucopyranos-3-yl}-D-lactoyl]-L-alanyl-D-isoglutamine methylester] | 0 | 0.081 ± 0.003 | 0.126 ± 0.003 | 0.635 ± 0.011 | 0.742 ± 0.016 | 0 | 0.088 ± 0.004 | 0.140 ± 0.001 | 0.868 ± 0.010 | 0.824 ± 0.002 | 39.7
